Data taken from article PMC11785675, “Phase Ib study of the oral PI3Kδ inhibitor linperlisib in patients with advanced solid tumors” (International Journal of Clinical Oncology, 2024).

Columns and labels:
[1] = tested on: patients with advanced solid tumors; conditions: 80 mg/day oral; compared with other PI3K inhibitors;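 also: phase Ib open-label single-arm trial, once-daily dosing in 28-day cycles, adverse events graded by NCI CTCAE v5.0, recorded until at least 30 days post last dose, incidence as patient counts and percentages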
Procedure: (§1) This phase Ib, single-arm, open-label, multi-center clinical trial recruited patients with advanced or metastatic solid tumors from eight sites in China.
(§2) The main exclusion criteria included prior use of PI3K targeted agents and clinically symptomatic central nervous system metastasis or meningeal metastasis.
(§3) Patients received oral linperlisib 80 mg once per day, taken with warm water either 1 h prior to or 2 h after a meal every day, in a 28-day cycle. Dose adjustments, including holds and reductions, were mandated for grade 3/4 hematologic and grade 3 non-hematologic toxicity. Treatment with linperlisib continued until disease progression, intolerable toxicity, withdrawal of informed consent, death or any other conditions deemed by the investigator to warrant drug discontinuation.
(§4) Physical examination, assessment of ECOG performance status, clinical laboratory evaluations, electrocardiogram, and other safety evaluations were conducted to assess safety. AEs were graded according to the National Cancer Institute Common Terminology Criteria for Adverse Events (CTCAE), Version 5.0. All AEs were recorded from the time of signing the informed consent to at least 30 days after the last dose, and were followed until resolution or stabilization. Patients underwent radiographic assessments every 8 weeks by enhanced computed tomography or magnetic resonance imaging according to RECIST 1.1.
(§5) The primary endpoint was safety as assessed by monitoring the frequency, duration, and severity of AEs. Secondary endpoints were efficacy endpoints, including ORR, DCR, and progression-free survival (PFS).
(§6) Baseline data are presented descriptively. ORR is determined by the proportion of patients who achieve a confirmed complete response (CR) or partial response (PR) as the best overall response, and is presented with CIs. PFS and overall survival (OS) curves are generated using the Kaplan–Meier method. The incidence of AEs and serious AEs (SAEs) are reported as numbers and percentages.

advanced solid tumors = test: Phase Ib trial of oral linperlisib: efficacy (RECIST 1.1); type: in vivo, human; conditions: 80 mg/day oral;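 also: Open-label single-arm multicenter study in China, once-daily dosing over 28-day cycles, response judged by contrast CT or MRI every 8 weeks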
Procedure: as §1, §2, §3, §4, §5, §6

[2] = Phase Ib trial: pharmacokinetics of linperlisib 80 mg once daily; type: in vivo, human
Procedure: Pharmacokinetic analysis included the first 13 patients enrolled in this study who received linperlisib at 80 mg once daily.

[3] = single-dose 14C-YY-20394 tracer study; cited from earlier work
CT26 cancer model = conditions: preclinical findings, no reference given; cited from earlier work
[4] = tested on: relapsed or refractory B-cell hematological malignancies; set-up: method as in PMID 34425850; conditions: phase Ia, cited from earlier work
[5] = tested on: malignant B cells and primary tumor cell lines; conditions: preclinical data, no reference given; cited from earlier work

COc1ncc(-c2nc(N3CCOCC3)nc3c(CN4CCC(C(C)(C)O)CC4)cc(F)cc23)cc1NS(C)(=O)=O [linperlisib]
Incidence of diarrhea, colitis, and hepatotoxicity [1]: very low | DCR in patients with thymic carcinoma (advanced solid tumors): 50% | DCR, patients with less than three prior lines of therapy (advanced solid tumors): 46.3% | Progressive disease as best response (advanced solid tumors; 94 patients): Thirty-nine | Stable disease (advanced solid tumors; 94 patients): 34 patients | Median progression-free survival (PFS) (advanced solid tumors; 94 patients, 95% CI 1.79–1.88): 1.85 months | Median overall survival (OS) (advanced solid tumors; 94 patients, median follow-up 4.2 months): not reached | Complete response (CR) rate (advanced solid tumors; 94 patients, one thymoma patient): 1.1% | Objective response rate (ORR) (advanced solid tumors; all 94 patients, 95% CI 0.0–5.8): 1.1% | Disease control rate (DCR) (advanced solid tumors; all 94 patients, 95% CI 27.5–47.8): 37.2% | DCR, anal cancer (advanced solid tumors; n = 1): 1 (100.0) n (%) | DCR, endometrial cancer (advanced solid tumors; n = 1): 0 (0.0) n (%) | DCR, esophageal cancer (advanced solid tumors; n = 1): 0 (0.0) n (%) | DCR, lung neuroendocrine carcinoma (advanced solid tumors; n = 1): 1 (100.0) n (%) | DCR, lung squamous cell carcinoma (advanced solid tumors; n = 1): 0 (0.0) n (%) | DCR, oral cavity cancer (advanced solid tumors; n = 1): 1 (100.0) n (%) | DCR, ovarian cancer (advanced solid tumors; n = 1): 1 (100.0) n (%) | DCR, pancreatic cancer (advanced solid tumors; n = 1): 1 (100.0) n (%) | DCR, parotid carcinoma (advanced solid tumors; n = 1): 0 (0.0) n (%) | DCR, thymoma (advanced solid tumors; n = 1): 1 (100.0) n (%) | ORR, anal cancer (advanced solid tumors; n = 1): 0 (0.0) n (%) | ORR, endometrial cancer (advanced solid tumors; n = 1): 0 (0.0) n (%) | ORR, esophageal cancer (advanced solid tumors; n = 1): 0 (0.0) n (%) | ORR, lung neuroendocrine carcinoma (advanced solid tumors; n = 1): 0 (0.0) n (%) | ORR, lung squamous cell carcinoma (advanced solid tumors; n = 1): 0 (0.0) n (%) | ORR, oral cavity cancer (advanced solid tumors; n = 1): 0 (0.0) n (%) | ORR, ovarian cancer (advanced solid tumors; n = 1): 0 (0.0) n (%) | ORR, pancreatic cancer (advanced solid tumors; n = 1): 0 (0.0) n (%) | ORR, parotid carcinoma (advanced solid tumors; n = 1): 0 (0.0) n (%) | ORR, thymoma (advanced solid tumors; n = 1): 1 (100.0) n (%) | DCR, carcinoma of renal pelvis (advanced solid tumors; n = 2): 1 (50.0) n (%) | DCR, cholangiocarcinoma (advanced solid tumors; n = 2): 0 (0.0) n (%) | DCR, hepatocellular carcinoma (advanced solid tumors; n = 2): 0 (0.0) n (%) | ORR, carcinoma of renal pelvis (advanced solid tumors; n = 2): 0 (0.0) n (%) | ORR, cholangiocarcinoma (advanced solid tumors; n = 2): 0 (0.0) n (%) | ORR, hepatocellular carcinoma (advanced solid tumors; n = 2): 0 (0.0) n (%) | DCR, gallbladder cancer (advanced solid tumors; n = 3): 2 (66.7) n (%) | DCR, nasopharyngeal carcinoma (advanced solid tumors; n = 3): 2 (66.7) n (%) | ORR, gallbladder cancer (advanced solid tumors; n = 3): 0 (0.0) n (%) | ORR, nasopharyngeal carcinoma (advanced solid tumors; n = 3): 0 (0.0) n (%) | DCR, gastric cancer (advanced solid tumors; n = 4): 1 (25.0) n (%) | ORR, gastric cancer (advanced solid tumors; n = 4): 0 (0.0) n (%) | DCR, renal cell carcinoma (advanced solid tumors; n = 5): 2 (40.0) n (%) | ORR, renal cell carcinoma (advanced solid tumors; n = 5): 0 (0.0) n (%) | DCR, lung adenocarcinoma (advanced solid tumors; n = 6): 3 (50.0) n (%) | ORR, lung adenocarcinoma (advanced solid tumors; n = 6): 0 (0.0) n (%) | DCR, breast cancer (advanced solid tumors; n = 8): 1 (12.5) n (%) | ORR, breast cancer (advanced solid tumors; n = 8): 0 (0.0) n (%) | DCR, sarcoma (advanced solid tumors; n = 9): 3 (33.3) n (%) | ORR, sarcoma (advanced solid tumors; n = 9): 0 (0.0) n (%) | DCR, colon cancer (advanced solid tumors; n = 11): 3 (27.3) n (%) | ORR, colon cancer (advanced solid tumors; n = 11): 0 (0.0) n (%) | DCR, rectal cancer (advanced solid tumors; n = 13): 3 (23.1) n (%) | ORR, rectal cancer (advanced solid tumors; n = 13): 0 (0.0) n (%) | DCR, thymic carcinoma (advanced solid tumors; n = 16): 8 (50.0) n (%) | ORR, thymic carcinoma (advanced solid tumors; n = 16): 0 (0.0) n (%) | DCR, lung and mediastinal tumors, total (advanced solid tumors; n = 25): 13 (52.0) n (%) | ORR, lung and mediastinal tumors, total (advanced solid tumors; n = 25): 1 (4.0) n (%) | DCR, other types of tumor, total (advanced solid tumors; n = 31): 11 (35.5) n (%) | ORR, other types of tumor, total (advanced solid tumors; n = 31): 0 (0.0) n (%) | DCR, gastrointestinal tumors, total (advanced solid tumors; n = 38): 11 (28.9) n (%) | ORR, gastrointestinal tumors, total (advanced solid tumors; n = 38): 0 (0.0) n (%) | Shrinkage of target lesions (advanced solid tumors; thymoma, gallbladder cancer, anal canal squamous cell carcinoma, renal cell carcinoma, renal pelvis cancer): more than 20% | Target lesion change in patients with HCC (advanced solid tumors; two patients with HCC): one of them had shrinkage of target lesions | Accumulation after multiple administrations ([2]; 80 mg once daily): no accumulation was observed | Trough levels ([2]; 80 mg once daily, cycle 1, day 7, range 68.4–232): 167.7 ng/mL | Accumulation after multiple administrations ([2]; 80 mg once daily, listed as Linperlisib): no accumulation is observed | Absorption after a single dose ([2]; 80 mg oral): rapidly absorbed | Vd/F ([2]; human, plasma, single dose oral 80 mg qd, n = 13, read-out: Vz/F, mean (SD)): 251 L | AUC(0-t) ([2]; human, single dose oral 80 mg qd, n = 13, plasma, read-out: AUC0-24, mean (SD)): 4920 ng·h/mL | AUC(0-inf) ([2]; human, single dose oral 80 mg qd, n = 13, plasma, read-out: AUC0-∞, mean (SD)): 7260 ng·h/mL | Cmax ([2]; human, single dose oral 80 mg qd, n = 13, plasma, read-out: Cmax, mean (SD)): 364 ng/mL | MRT ([2]; human, single dose oral 80 mg qd, n = 13, plasma, read-out: MRT, median (range)): 18.9 h | half-life ([2]; human, single dose oral 80 mg qd, n = 13, plasma, read-out: T1/2, mean (SD) (converted)): 14.3 h | Tmax ([2]; human, single dose oral 80 mg qd, n = 13, plasma, read-out: Tmax, median (range)): 3.9 h | CL/F, mean (SD) ([2]; single dose oral 80 mg qd, n = 13): 13.5 (4.9) L/h | Route of excretion [3]: primarily excreted through the kidneys | Tumor volume (CT26 cancer model): reduced tumor volume | Objective response rate (ORR) ([4]; 20 to 200 mg, 16/25, 95% CI 45.2–82.8): 64% | Disease control rate (DCR) ([4]; 20 to 200 mg, 18/25, 95% CI 54.4–89.6): 72% | Dose-limiting toxicities ([4]; highest 200 mg/day dose): no dose-limiting toxicities were observed | Apoptosis and proliferation [5]: induce apoptosis and inhibit the proliferation
